From patent US20240270751A1, “Pyrazolopyridinone Compounds” (BeiGene Ltd., priority 2021, published 2024)

What was measured:
[1] = target: DGKα (Homo sapiens (Human), UniProt P23743); assay: Biochemical DGK IC50 assay, DGKα ADP-Glo assay; conditions: 7.5 nM enzyme, 140 μM ATP, 80 μM DAG
Outline: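 ADP-Glo read-out with full-length DGKα on DAG/PS lipid micelle substrate in 25 mM HEPES pH 7.0, 0.5 mM EDTA, 160 mM octyl β-D-glucopyranoside. Compound final concentrations spanned 1.55˜10000 nM or 23.3˜150000 nM.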

[2] = target: DGKζ (Homo sapiens (Human), UniProt Q13574); assay: Biochemical DGK IC50 assay, DGKζ ADP-Glo assay; conditions: 0.5 nM enzyme, 140 μM ATP, 80 μM DAG; read-out: DGKζ ADP-Glo assay IC50
Outline: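 Full-length human DGKζ, His-TEV tagged and purified from baculovirus-infected Sf9 cells, assayed by ADP-Glo with DAG/PS lipid micelle substrate prepared in 25 mM HEPES pH 7.0 with octyl glucoside. Final compound concentrations spanned 1.55–10000 nM or 23.3–150000 nM.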

Sequence of DGKζ (Q13574 other isoform, or with tags, fused parts or gaps): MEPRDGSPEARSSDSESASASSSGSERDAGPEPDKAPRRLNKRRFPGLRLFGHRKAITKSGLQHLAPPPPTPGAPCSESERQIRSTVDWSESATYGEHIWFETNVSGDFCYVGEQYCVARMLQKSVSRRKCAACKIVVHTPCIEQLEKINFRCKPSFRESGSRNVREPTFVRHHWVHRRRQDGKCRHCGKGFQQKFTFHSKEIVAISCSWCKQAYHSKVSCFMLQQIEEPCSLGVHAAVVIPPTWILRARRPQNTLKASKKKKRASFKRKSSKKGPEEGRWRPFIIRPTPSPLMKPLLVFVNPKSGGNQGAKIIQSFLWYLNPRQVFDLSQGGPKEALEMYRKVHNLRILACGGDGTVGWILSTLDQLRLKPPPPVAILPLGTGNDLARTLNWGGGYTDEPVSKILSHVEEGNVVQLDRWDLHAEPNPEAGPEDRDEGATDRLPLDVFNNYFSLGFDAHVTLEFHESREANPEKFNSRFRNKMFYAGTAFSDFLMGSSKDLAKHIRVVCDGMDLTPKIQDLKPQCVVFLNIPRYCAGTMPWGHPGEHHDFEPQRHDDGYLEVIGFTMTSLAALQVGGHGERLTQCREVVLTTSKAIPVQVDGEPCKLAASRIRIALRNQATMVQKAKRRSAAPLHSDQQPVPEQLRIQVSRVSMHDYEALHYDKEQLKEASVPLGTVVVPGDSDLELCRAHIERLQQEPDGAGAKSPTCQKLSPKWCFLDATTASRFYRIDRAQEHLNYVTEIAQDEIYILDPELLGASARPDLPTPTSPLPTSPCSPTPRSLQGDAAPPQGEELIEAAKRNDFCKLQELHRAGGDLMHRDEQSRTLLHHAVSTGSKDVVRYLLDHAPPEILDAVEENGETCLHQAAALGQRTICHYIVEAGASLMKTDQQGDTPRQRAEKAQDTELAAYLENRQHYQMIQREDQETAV
Sequence of DGKα (P23743 whole entry): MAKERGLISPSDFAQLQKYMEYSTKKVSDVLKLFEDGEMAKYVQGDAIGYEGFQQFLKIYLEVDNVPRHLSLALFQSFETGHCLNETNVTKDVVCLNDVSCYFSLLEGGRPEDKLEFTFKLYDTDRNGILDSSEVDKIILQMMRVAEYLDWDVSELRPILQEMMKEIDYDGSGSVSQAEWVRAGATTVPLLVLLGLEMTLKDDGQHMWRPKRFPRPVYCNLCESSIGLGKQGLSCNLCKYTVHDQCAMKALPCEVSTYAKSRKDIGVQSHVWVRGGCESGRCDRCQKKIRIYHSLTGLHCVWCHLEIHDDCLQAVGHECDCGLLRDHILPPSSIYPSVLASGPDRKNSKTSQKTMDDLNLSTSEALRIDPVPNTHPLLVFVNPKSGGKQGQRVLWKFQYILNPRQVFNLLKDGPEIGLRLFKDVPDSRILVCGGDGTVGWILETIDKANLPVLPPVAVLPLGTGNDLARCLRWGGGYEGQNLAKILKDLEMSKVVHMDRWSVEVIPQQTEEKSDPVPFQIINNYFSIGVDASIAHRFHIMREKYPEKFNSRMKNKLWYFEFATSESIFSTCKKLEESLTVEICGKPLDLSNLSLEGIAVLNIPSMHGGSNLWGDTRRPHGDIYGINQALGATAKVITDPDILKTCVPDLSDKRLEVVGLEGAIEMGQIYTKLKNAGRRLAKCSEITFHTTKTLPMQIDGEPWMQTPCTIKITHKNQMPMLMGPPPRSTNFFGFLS

| SMILES | IC50 [1] [µM] | IC50 [2] [µM] |
| --- | --- | --- |
| CC[C@H]1CN(C(C)c2cc(C(F)(F)F)nn2CC)[C@H](CC)CN1c1cc(=O)n(C)c2cn(CC#N)nc12 (stereo partly drawn) [Compound A210] | 11.2 | 0.369 |
| CC[C@H]1CN(C(C)c2cc(C(F)(F)F)nn2CC)[C@H](CC)CN1c1cc(=O)n(C)c2cn(CC#N)nc12 (stereo partly drawn) [Compound A211] | 2.76 | 0.234 |
| CC[C@H]1CN(C(C)c2cc(Cl)nn2CC)[C@H](CC)CN1c1cc(=O)n(C)c2cn(CC#N)nc12 (stereo partly drawn) [Compound A212] | > 10 | 1.13 |
| CC[C@H]1CN(C(C)c2nc3ccccc3n2CCO)[C@H](CC)CN1c1cc(=O)n(C)c2cn(CC#N)nc12 (stereo partly drawn) [Compound A214] | > 10 | 3.43 |
| CC[C@H]1CN(C(C)c2nn(CC)cc2C)[C@H](CC)CN1c1cc(=O)n(C)c2cn(CC#N)nc12 (stereo partly drawn) [Compound A216] | > 10 | 2.37 |
| CC[C@H]1CN(C(C)c2cccnc2C(F)(F)F)[C@H](CC)CN1c1cc(=O)n(C)c2cn(CC#N)nc12 (stereo partly drawn) [Compound A217] | > 10 | 0.378 |
| CC[C@H]1CN(C(C)c2cnc(C)n2CC)[C@H](CC)CN1c1cc(=O)n(C)c2cn(CC#N)nc12 (stereo partly drawn) [Compound A219] | > 10 | > 10 |
| CC(C1CCCCC1)N1C[C@H](C)N(c2cc(=O)n(C)c3cn(CC#N)nc23)C[C@H]1C (stereo partly drawn) [Compound A223] | > 10 | > 10 |
| CC[C@@H]1CN(c2cc(=O)n(C)c3cn(CC#N)nc23)[C@@H](COC)CN1C(C)c1ccc2nccnc2c1 (stereo partly drawn) [Compound A225, 2-(7-((2R,5R)-5-ethyl-2-(methoxymethyl)-4-(1-(quinoxalin-6-yl)ethyl)piperazin-1-yl)-4-methyl-5-oxo-4,5-dihydro-2H-pyrazolo[4,3-b]pyridin-2-yl)acetonitrile] | 7.45 | 0.099 |
| CC[C@H]1CN(C(C)c2cnc(Cl)cc2C(F)(F)F)[C@H](CC)CN1c1cc(=O)n(C)c2cn(CC#N)nc12 (stereo partly drawn) [Compound A226] | 8.43 | 2.29 |
| CC[C@H]1CN(C(C)c2ccnn2CC(F)F)[C@H](CC)CN1c1cc(=O)n(C)c2c[nH]nc12 (stereo partly drawn) [Compound A228, 7-((2S,5R)-4-(1-(1-(2,2-difluoroethyl)-1H-pyrazol-5-yl)ethyl)-2,5-diethylpiperazin-1-yl)-4-methyl-2,4-dihydro-5H-pyrazolo[4,3-b]pyridin-5-one] | > 10 | 9.2 |
| CC[C@@H]1CN(c2cc(=O)n(C)c3cn(CC#N)nc23)[C@@H](CO)CN1C(C)c1ccc2nccnc2c1 (stereo partly drawn) [Compound A229, 2-(7-((2R,5R)-5-ethyl-2-(hydroxymethyl)-4-(1-(quinoxalin-6-yl)ethyl)piperazin-1-yl)-4-methyl-5-oxo-4,5-dihydro-2H-pyrazolo[4,3-b]pyridin-2-yl)acetonitrile] | 24.1 | 0.166 |
| CC[C@H]1CN(C(C)c2cn(C)nc2C(F)(F)F)[C@H](CC)CN1c1cc(=O)n(C)c2cn(CC#N)nc12 (stereo partly drawn) [Compound A232, 2-(7-((2S,5R)-2,5-diethyl-4-(1-(1-methyl-3-(trifluoromethyl)-1H-pyrazol-4-yl)ethyl)piperazin-1-yl)-4-methyl-5-oxo-4,5-dihydro-2H-pyrazolo[4,3-b]pyridin-2-yl)acetonitrile] | 8.49 | 3.11 |
| CC[C@H]1CN(C(C)c2cnn(C)c2C(F)(F)F)[C@H](CC)CN1c1cc(=O)n(C)c2cn(CC#N)nc12 (stereo partly drawn) [Compound A233, 2-(7-((2S,5R)-2,5-diethyl-4-(1-(1-methyl-5-(trifluoromethyl)-1H-pyrazol-4-yl)ethyl)piperazin-1-yl)-4-methyl-5-oxo-4,5-dihydro-2H-pyrazolo[4,3-b]pyridin-2-yl)acetonitrile] | 6.98 | 0.033 |
| CC[C@H]1CN(C(C)c2cnn(C)c2C(F)F)[C@H](CC)CN1c1cc(=O)n(C)c2cn(CC#N)nc12 (stereo partly drawn) [Compound A234] | 7.33 | 0.159 |
| CC[C@H]1CN(C(C)c2cnc(C)cc2C(F)(F)F)[C@H](CC)CN1c1cc(=O)n(C)c2cn(CC#N)nc12 (stereo partly drawn) [Compound A235] | > 10 | 5.38 |
| CC[C@H]1CN(C(C)c2cncn2CC(F)F)[C@H](CC)CN1c1cc(=O)n(C)c2cn(CC#N)nc12 (stereo partly drawn) [Compound A237] | > 10 | 1.35 |

| SMILES | IC50 [1] [µM] | IC50 [2] [µM] |
| --- | --- | --- |
| CC[C@H]1CN(C(C)c2cnc(C(F)(F)F)n2CC)[C@H](CC)CN1c1cc(=O)n(C)c2cn(CC#N)nc12 (stereo partly drawn) [Compound A239] | > 10 | 0.391 |
| CC[C@H]1CN(C(C)c2nn(CC)cc2C#N)[C@H](CC)CN1c1cc(=O)n(C)c2cn(CC#N)nc12 (stereo partly drawn) [Compound A240, 3-(1-((2R,5S)-4-(2-(cyanomethyl)-4-methyl-5-oxo-4,5-dihydro-2H-pyrazolo[4,3-b]pyridin-7-yl)-2,5-diethylpiperazin-1-yl)ethyl)-1-ethyl-1H-pyrazole-4-carbonitrile] | 0.948 | 2.01 |
| CC[C@@H]1CN(c2cc(=O)n(C)c3cn(CC#N)nc23)[C@@H](CC)CN1Cc1ccc(F)cc1C(F)(F)F [Compound A241] | 6.43 | 0.27 |
| CC(C1CCOCC1)N1C[C@H](C)N(c2cc(=O)n(C)c3cn(CC#N)nc23)C[C@H]1C (stereo partly drawn) [Compound A242] | > 10 | > 10 |
| C[C@@H]1CN(c2nc(=O)n(C)c3c(Cl)n(CC#N)nc23)[C@@H](C)CN1[C@H](C)c1ccc2nccnc2c1 [Compound A245, 2-(3-chloro-7-((2S,5R)-2,5-dimethyl-4-((R)-1-(quinoxalin-6-yl)ethyl)piperazin-1-yl)-4-methyl-5-oxo-4,5-dihydro-2H-pyrazolo[4,3-d]pyrimidin-2-yl)acetonitrile, or 2-(3-chloro-7-((2S,5R)-2,5-dimethyl-4-((S)-1-(quinoxalin-6-yl)ethyl)piperazin-1-yl)-4-methyl-5-oxo-4,5-dihydro-2H-pyrazolo[4,3-d]pyrimidin-2-yl)acetonitrile] | > 10 | 0.087 |
| C[C@@H]1CN(c2cc(=O)n(C)c3cn(CC#N)nc23)[C@@H](C)CN1Cc1ccc(F)cc1C(F)(F)F [Compound A246] | 9.72 | 1.07 |
| CC(c1ccc(F)cc1OC(F)F)N1C[C@H](C)N(c2cc(=O)n(C)c3cn(CC#N)nc23)C[C@H]1C (stereo partly drawn) [Compound A247, 2-(7-((2S,5R)-4-(1-(2-(difluoromethoxy)-4-fluorophenyl)ethyl)-2,5-dimethylpiperazin-1-yl)-4-methyl-5-oxo-4,5-dihydro-2H-pyrazolo[4,3-b]pyridin-2-yl)acetonitrile] | > 10 | 0.283 |
| CC(c1cnc2c(c1)OCCO2)N1C[C@H](C)N(c2cc(=O)n(C)c3cn(CC#N)nc23)C[C@H]1C (stereo partly drawn) [Compound A250] | > 10 | 3.01 |
| CC(c1ccc(Cl)cc1C(F)(F)F)N1C[C@H](C)N(c2cc(=O)n(C)c3cn(CC#N)nc23)C[C@H]1C (stereo partly drawn) [Compound A251] | > 10 | 3.27 |
| CC(c1ccc(F)cc1C(F)F)N1C[C@H](C)N(c2cc(=O)n(C)c3cn(CC#N)nc23)C[C@H]1C (stereo partly drawn) [Compound A252] | > 10 | 1.37 |
| CC(c1ccc(F)cc1C(C)(F)F)N1C[C@H](C)N(c2cc(=O)n(C)c3cn(CC#N)nc23)C[C@H]1C (stereo partly drawn) [Compound A254, 2-(7-((2S,5R)-4-(1-(2-(1,1-difluoroethyl)-4-fluorophenyl)ethyl)-2,5-dimethylpiperazin-1-yl)-4-methyl-5-oxo-4,5-dihydro-2H-pyrazolo[4,3-b]pyridin-2-yl)acetonitrile] | > 10 | 0.307 |
| CCC(c1ccc2nccnc2c1)N1C[C@H](C)N(c2cc(=O)n(C)c3cn(CC#N)nc23)C[C@H]1C (stereo partly drawn) [Compound A255] | > 10 | 0.194 |
| CCC(c1ccc(F)cc1C(F)(F)F)N1C[C@H](C)N(c2cc(=O)n(C)c3cn(CC#N)nc23)C[C@H]1C (stereo partly drawn) [Compound A256] | > 10 | 0.315 |
| [2H]C([2H])([2H])n1c(=O)cc(N2C[C@@H](C)N(C(C)c3ccc(F)cc3C(F)(F)F)C[C@@H]2C)c2nn(CC#N)cc21 (stereo partly drawn) [Compound A257, 2-(7-((2S,5R)-4-(1-(4-fluoro-2-(trifluoromethyl)phenyl)ethyl)-2,5-dimethylpiperazin-1-yl)-4-(methyl-d3)-5-oxo-4,5-dihydro-2H-pyrazolo[4,3-b]pyridin-2-yl)acetonitrile] | > 10 | 0.652 |
| C[C@@H]1CN(c2cc(=O)n(C)c3c(F)nn(CC#N)c23)[C@@H](C)CN1[C@H](C)c1ccc2nccnc2c1 [Compound A258, 2-(7-((2S,5R)-2,5-dimethyl-4-((R)-1-(quinoxalin-6-yl)ethyl)piperazin-1-yl)-3-fluoro-4-methyl-5-oxo-4,5-dihydro-1H-pyrazolo[4,3-b]pyridin-1-yl)acetonitrile, or 2-(7-((2S,5R)-2,5-dimethyl-4-((S)-1-(quinoxalin-6-yl)ethyl)piperazin-1-yl)-3-fluoro-4-methyl-5-oxo-4,5-dihydro-1H-pyrazolo[4,3-b]pyridin-1-yl)acetonitrile] | > 10 | > 10 |
| CC[C@@H]1CN(c2cc(=O)n(C)c3cn(CC#N)nc23)[C@@H]([C@@H](C)O)CN1C(C)c1ccc2nccnc2c1 (stereo partly drawn) [Compound A259, 2-(7-((2R,5R)-5-ethyl-2-((R)-1-hydroxyethyl)-4-(1-(quinoxalin-6-yl)ethyl)piperazin-1-yl)-4-methyl-5-oxo-4,5-dihydro-2H-pyrazolo[4,3-b]pyridin-2-yl)acetonitrile] | > 10 | 0.38 |
